≈ marks a conversion by molar mass, not a printed value. Like-named read-outs stand apart in the source and are kept apart here. Blank lines part the entries; values can stand above or below the compound they belong to. Non-standard residues stand in square brackets, D forms with d. Residues, ends and D or L forms follow the SMILES beside them. No end group written: not given here. Ahx = NCCCCCC(=O)O
Tests used:
[1] = tested on: C. neoformans var. grubii strains; assay type: cell-based, Cryptococcus neoformans var. grubii; settings: 74 h
Description: (§1) The minimal fungicidal concentration (MFC) was evaluated after the yeast’s exposure to the chimeras (1.6 to 100 μg/mL), as described above. […] The MFC was defined as the lowest peptide concentration at which ≤1 colony was visible on the agar plate.

[2] = tested on: C. neoformans 2807 clinical isolate; assay: microbe, parasite or virus in culture; assay type: cell-based, Cryptococcus neoformans var. grubii; settings: 72 h; for MICa (MIC of the chimeric peptide alone): 2807 clinical isolate
Description: (§2) The combined effect of FLC with the chimeric peptides was evaluated for the reference strain and one clinical isolate. The amounts of 50 µL of the chimeric peptide and 50 µL of antifungal (FLC) were added to the plates at final concentrations of: 2xMIC, MIC, 1/2xMIC, 1/4xMIC, 1/6xMIC, and 1/8xMIC. A yeast cell suspension was added at 0.5–2.5 × 10^3 cells/mL in 96-well plates. It was incubated for 72 h with shaking at 110 rpm and at 30 °C.
(§3) The effect of the combination of the two drugs was determined by calculating the fractional inhibitory concentration index (∑FIC), which was calculated as follows: ∑FIC = (MICcombined/MICalone) FLC + (MICcombined/MICalone) peptide.
(§4) FIC values ≤0.5 was considered as synergistic effect, 0.5 < FIC < 1 an additive effect, 1 < FIC < 4 indifference, and FIC ≥ 4 an antagonistic effect.

C. neoformans H99 = assay: microbe, parasite or virus in culture; assay type: cell-based, Cryptococcus neoformans var. grubii; settings: for MICa (MIC of the chimeric peptide alone): H99, 72 h
Description: as §2, §3, §4

[3] = tested on: L929 murine fibroblast cells; assay type: cell-based, mouse; settings: 2 h
Description: The cell line used for this approach was the mouse fibroblast L929. The cells were washed with saline solution, trypsinized, and incubated for 5 min at 37 °C with a 5% CO2 atmosphere. The fibroblast cell suspension was prepared at a concentration of 1 × 10^6 cells in 7 mL of RPMI medium supplemented with fetal bovine serum (the number of cells needed for one plate) and dispensed into 96-well plates. Then, 70 µL of cells was added per well and incubated overnight at 37 °C and 5% CO2. Dilutions of each peptide chimera (3.125–200 µg/mL) were formulated, and 50 µL of each were added to the plate in quadruplicate and incubated for 2 h at 37 °C and 5% CO2. Control wells consisted of untreated cell cultures. In addition, 10 µL of MTT was added to each of the wells, and the plate was incubated for 4 h at 37 °C with a 5% CO2 atmosphere. Following that, the total volume of each well was withdrawn, 100 µL of DMSO was added, and it was incubated for 40 min at 37 °C with 5% CO2.
Plates were read with an iMark™ microplate reader (Bio-rad, Hercules, CA, USA) measuring the absorbance at 595 nm. Wells of untreated fibroblast cells were considered to be the negative control.

[4] = tested on: C. neoformans var. grubii strains; assay type: cell-based, Cryptococcus neoformans var. grubii; settings: 72 h
Description: (§5) The in vitro susceptibility of chimeric, precursor peptides and FLC was evaluated by determining the minimal inhibitory concentration (MIC) on the basis of the broth microdilution method, according to document M27-A3 of the Clinical Laboratory Standards Institute (CLSI). It was diluted in RPMI-1640 medium (Sigma-Aldrich) at concentrations ranging from 1.6 to 100 μg/mL. The initial suspension (0.5 McFarland) was mixed into saline solution. Subsequently, a 1:50 dilution in saline solution and a 1:20 dilution in RPMI-1640 were tested (0.5–2.5 × 10^3 cells/mL). The negative control was the medium only without inoculum, and the positive control was the medium plus inoculum. The incubation time was 72 h at 30 °C at 110 rpm. The MIC values were determined by measuring the absorbance at 595 nm in a microplate reader and were defined as the lowest concentration of peptides capable of inhibiting growth equal to or higher than 50% in relation to the positive control. The MIC for fluconazole (FLC; 0.125–64 μg/mL; Pfizer, Brazil) was also determined according to M27-A3. The lowest concentration of the antifungal agent that was able to inhibit growth by 50% with respect to the positive control was considered the MIC.

[5] = tested on: C. neoformans var. grubii clinical isolate 2643; assay: microbe, parasite or virus in culture; assay type: cell-based, Cryptococcus neoformans var. grubii
Description: as §5

[6] = tested on: C. neoformans var. grubii H99; assay: microbe, parasite or virus in culture; assay type: cell-based, Cryptococcus neoformans var. grubii
Description: as §5

[7] = tested on: C. neoformans var. grubii clinical isolate 2807; assay: microbe, parasite or virus in culture; assay type: cell-based, Cryptococcus neoformans var. grubii
Description: as §5

[8] = tested on: C. neoformans var. grubii clinical isolate 3279; assay: microbe, parasite or virus in culture; assay type: cell-based, Cryptococcus neoformans var. grubii
Description: as §5

[9] = tested on: C. neoformans var. grubii mutant CNAG_02050; assay: MIC, broth microdilution (CLSI M27-A3); assay type: cell-based, Cryptococcus neoformans var. grubii; settings: Cryptococcus neoformans, 72 h
Description: as §5

[10] = tested on: C. neoformans var. grubii mutant CNAG_04804; assay: MIC, broth microdilution (CLSI M27-A3); assay type: cell-based, Cryptococcus neoformans var. grubii; settings: Cryptococcus neoformans, 72 h
Description: as §5

[11] = tested on: C. neoformans var. grubii mutant CNAG_04693; assay: MIC, broth microdilution (CLSI M27-A3); assay type: cell-based, Cryptococcus neoformans var. grubii; settings: Cryptococcus neoformans, 72 h
Description: as §5

[12] = tested on: C. neoformans var. grubii mutant CNAG_06925; assay: MIC, broth microdilution (CLSI M27-A3); assay type: cell-based, Cryptococcus neoformans var. grubii; settings: Cryptococcus neoformans, 72 h
Description: as §5

[13] = tested on: C. neoformans var. grubii mutant CNAG_00730; assay: MIC, broth microdilution (CLSI M27-A3); assay type: cell-based, Cryptococcus neoformans var. grubii; settings: Cryptococcus neoformans, 72 h
Description: as §5

[14] = tested on: C. neoformans var. grubii mutant CNAG_01580; assay: MIC, broth microdilution (CLSI M27-A3); assay type: cell-based, Cryptococcus neoformans var. grubii; settings: Cryptococcus neoformans, 72 h
Description: as §5

[15] = tested on: C. neoformans var. grubii mutant CNAG_02915; assay: MIC, broth microdilution (CLSI M27-A3); assay type: cell-based, Cryptococcus neoformans var. grubii; settings: Cryptococcus neoformans, 72 h
Description: as §5

[16] = tested on: C. neoformans var. grubii mutant CNAG_05150; assay: MIC, broth microdilution (CLSI M27-A3); assay type: cell-based, Cryptococcus neoformans var. grubii; settings: Cryptococcus neoformans, 72 h
Description: as §5

[17] = tested on: mutants of C. neoformans var. grubii; assay: MIC, mutants (summary statements); assay type: cell-based, Cryptococcus neoformans var. grubii; settings: all mutants
Description: as §5

[18] = tested on: C. neoformans var. grubii H99; assay: Fluorescent staining for yeast viability (LIVE/DEAD, FUN1 and calcofluor white); assay type: cell-based, Cryptococcus neoformans var. grubii; settings: 72 h
Description: Since the antifungal activity of the two chimeras was similar, it was decided to evaluate cell viability in the reference strain using one of the two chimeras by means of confocal microscopy. For this reason, the C6 chimera was evaluated in the H99 strain by staining with FUN1 and calcofluor white.
A commercial LIVE/DEAD™ yeast viability kit (Invitrogen, US) was used to analyze yeast viability after treatment with one of the chimeric peptides and FLC for 72 h at concentrations of 3.125, 6.25, 12.5, and 25 μg/mL and 4 and 8 μg/mL, respectively. In the dead control, the yeasts were treated with 5% hypochlorite for 10 min. Untreated yeast cells were used as a live control. Yeast cells were suspended in phosphate buffered saline (PBS). FUN-1 cell stains (10 μM) and calcofluor white (25 μM) were added to the yeast cell suspensions. After incubation in the dark at 30 °C for 30 min, the stained yeast was analyzed under a fluorescence microscope (Olympus FV1000) using filters set to excitation at approximately 488, 532, and 405 nm at 60× magnification. Fungal cell viability was determined by means of fluorescence analysis in at least 10 fields. Staining and interpretation of fluorescence were performed according to the manufacturer’s instructions.

[19] = tested on: C. neoformans var. grubii H99; assay type: cell-based, Cryptococcus neoformans var. grubii; settings: var. grubii H99, 74 h
Description: as §1

[20] = tested on: C. neoformans var. grubii clinical isolate 2807; assay type: cell-based, Cryptococcus neoformans var. grubii; settings: var. grubii clinical isolate 2807, 74 h
Description: as §1

[21] = tested on: normal human T lymphocytes, fibroblasts, and endothelial cells; settings: LfcinB at 200 μg/mL; cited from earlier work
From the text: One of the main concerns about the use of antimicrobial peptides in systemic treatments is their toxicity.

[22] = var. grubii clinical isolate 2807, 72 h

Compound: CC(C)C[C@H](NC(=O)[C@H](CC(C)C)NC(=O)[C@H](CCCCN)NC(=O)[C@H](CCCCN)NC(=O)[C@H](CC(C)C)NC(=O)[C@H](CC(C)C)NC(=O)[C@H](CCCCN)NC(=O)CCCCCNC(=O)[C@H](CCCNC(=N)N)NC(=O)[C@H](Cc1c[nH]c2ccccc12)NC(=O)[C@H](CCC(N)=O)NC(=O)[C@H](Cc1c[nH]c2ccccc12)NC(=O)[C@H](CCCNC(=N)N)NC(=O)[C@@H](N)CCCNC(=N)N)C(=O)N[C@@H](CCCCN)C(N)=O [Chimera C5] (H-RRWQWR[Ahx]KLLKKLLK-NH2)
- MFC [1]: 12.5 µg/mL (≈ 6.05 µM)
- MICa (MIC of the chimeric peptide alone) [2]: 12.5 µg/mL
- MICa (MIC of the chimeric peptide alone) (C. neoformans H99): 12.5 µg/mL
- IC50 (fibroblast viability) [3]: 93.35 µg/mL (≈ 45.2 µM)
- MIC [4]: 12.5 µg/mL (≈ 6.05 µM)

Compound: CC(C)C[C@H](NC(=O)[C@H](CC(C)C)NC(=O)[C@H](CCCNC(=N)N)NC(=O)[C@H](CCCNC(=N)N)NC(=O)[C@H](CC(C)C)NC(=O)[C@H](CC(C)C)NC(=O)[C@H](CCCNC(=N)N)NC(=O)CCCCCNC(=O)[C@H](CCCCN)NC(=O)[C@H](Cc1c[nH]c2ccccc12)NC(=O)[C@H](CCC(N)=O)NC(=O)[C@H](Cc1c[nH]c2ccccc12)NC(=O)[C@H](CCCCN)NC(=O)[C@@H](N)CCCCN)C(=O)N[C@@H](CCCNC(=N)N)C(N)=O [Chimera C6] (H-KKWQWK[Ahx]RLLRRLLR-NH2)
- MFC [1]: 6.25 µg/mL (≈ 2.99 µM)
- MICa (MIC of the chimeric peptide alone) [2]: 6.25 µg/mL
- MICa (MIC of the chimeric peptide alone) (C. neoformans H99): 6.25 µg/mL
- IC50 (fibroblast viability) [3]: 67.44 µg/mL (≈ 32.2 µM)
- MIC [4]: 6.25 µg/mL (≈ 2.99 µM)

Compound: OC(Cn1cncn1)(Cn1cncn1)c1ccc(F)cc1F [FLC, fluconazole]
- MIC ([5]; Cryptococcus neoformans, clinical isolate 2643, broth microdilution RPMI-1640, 72 h, 30 °C, ≥50% inhibition, read-out: MIC): 8 µg/mL
- MIC ([6]; Cryptococcus neoformans, H99 reference strain, broth microdilution RPMI-1640, 72 h, 30 °C, ≥50% inhibition (A595), read-out: MIC): 4 µg/mL
- susceptibility of the strain to FLC ([6]; H99 strain): sensitive
- MIC ([7]; Cryptococcus neoformans, clinical isolate 2807, broth microdilution RPMI-1640, 72 h, 30 °C, ≥50% inhibition, read-out: MIC): 16 µg/mL
- MIC ([8]; Cryptococcus neoformans, clinical isolate 3279, broth microdilution RPMI-1640, 72 h, 30 °C, ≥50% inhibition, read-out: MIC): 16 µg/mL
- MIC ([2]; Cryptococcus neoformans, clinical isolate 2807, checkerboard, 30 °C, 110 rpm, read-out: MICb (MIC of FLC alone)): 16 µg/mL
- MIC (C. neoformans H99; Cryptococcus neoformans, H99, checkerboard, 72 h, 30 °C, 110 rpm, read-out: MICb (MIC of FLC alone)): 4 µg/mL
- MIC [9]: 1 µg/mL (≈ 3.27 µM)
- MIC [10]: 1 µg/mL (≈ 3.27 µM)
- MIC [11]: 1 µg/mL (≈ 3.27 µM)
- MIC [12]: 1 µg/mL (≈ 3.27 µM)
- MIC [13]: 0.75 µg/mL (≈ 2.45 µM)
- MIC [14]: 0.25 µg/mL (≈ 0.816 µM)
- MIC [15]: 1.5 µg/mL (≈ 4.9 µM)
- MIC [16]: 2 µg/mL (≈ 6.53 µM)
- susceptibility of the strains to FLC [17]: sensitive
- cell population versus live control ([18]; fluconazole 4 μg/mL (MIC)): a decrease in the cell population was observed
- cell decrease ([18]; fluconazole 8 μg/mL): > 80%

- MIC ([6]; var. grubii H99, 72 h): 111 µM
- MIC [7, 22]: 111 µM
Compound: KKWQWK [[K]-LfcinB (20–25)]
- MFC [19]: 111 µM
- MFC [20]: 111 µM

- MIC ([6]; var. grubii H99, 72 h): 114 µM
- MIC [7, 22]: 114 µM
Compound: KLLKKLLK [[K]-BFII (32–35)Pal]
- MFC [19]: 114 µM
- MFC [20]: 114 µM

Compound: LfcinB: bovine lactoferricin, antimicrobial peptide (FKCRRWQWRMKKLGAPSITCVRRAF; ends and bridges not checked; cysteine pairing not given here; UniProt P24627 36-60, looked up)
- toxicity for normal human cell cultures [21]: not toxic

- MIC ([5]; var. grubii clinical isolate 2643, 72 h): > 46 µM
- MIC ([6]; var. grubii H99, 72 h): > 46 µM
- MIC [7, 22]: > 46 µM
- MIC ([8]; var. grubii clinical isolate 3279, 72 h): > 46 µM
Compound: RLLRRLLR [BFII (32–35)Pal]
- MFC [19]: > 46 µM
- MFC [20]: > 46 µM
